Experimental data taken from publication PMC5074247 (Biopharmaceutics & Drug Disposition, 2016).
Like-named read-outs stand apart in the source and are kept apart here.

Assays:
[1] = cited from earlier work
[2] = cited from earlier work; remark: listed apart in the source
[3] = ZDF rat model; compared with sitagliptin ref 39; cited from earlier work
[4] = intravenously administered to rats at doses above 3 mg/kg ref 23; cited from earlier work
[5] = ref manufacturer's interview form; cited from earlier work
DPP‐4 = details: against DPP‐4 ref 2; cited from earlier work
[6] = type: in vivo, Sprague–Dawley rats; details: oral 1 mg/kg [^14C]teneligliptin, SD rats

## CC#CCn1c(N2CCC[C@@H](N)C2)nc2c1c(=O)n(Cc1nc(C)c3ccccc3n1)c(=O)n2C [Linagliptin, 8‐(3‐I‐aminopiperidin‐1‐yl)‐7‐but‐2‐ynyl‐3‐methyl‐1‐(4‐methyl‐quinazolin‐2‐ylmethyl)‐3,7‐dihydropurine‐2,6‐dione]
[1]; Heart, oral 2 mg/kg, 4 h, rats ref 23
  K p of radioactivity: 4.78
[1]; Kidney, oral 2 mg/kg, 4 h, rats ref 23, 2 mg/kg
  K p of radioactivity: 113
[1]; Kidney, oral 2 mg/kg, 4 h, rats ref 23, listed as linagliptin, 2 mg/kg
  K p of radioactivity: around 100
[1]; Liver, oral 2 mg/kg, 4 h, rats ref 23
  K p of radioactivity: 42.3
[1]; Lung, oral 2 mg/kg, 4 h, rats ref 23
  K p of radioactivity: 11.1
[2]; intravenous administration to rats ref 23
  V ss: 50.3 L/kg
[3]
  acetylcholine‐induced vascular relaxation: significantly stronger
[4]
  tissue distribution: non‐linear tissue distribution

## N[C@@H](CC(=O)N1CCn2c(nnc2C(F)(F)F)C1)Cc1cc(F)c(F)cc1F [Sitagliptin, (2R)‐4‐Oxo‐4‐[3‐(trifluoromethyl)‐5,6‐dihydro[1,2,4]‐triazolo[4,3‐a]pyrazin‐7(8H)‐yl]‐1‐(2,4,5‐trifluorophenyl)butan‐2‐amine]
[1]; Heart, oral 5 mg/kg, 4 h, rats ref 25
  K p of radioactivity: 2.73
[1]; Kidney, oral 5 mg/kg, 4 h, rats ref 25
  K p of radioactivity: 14.7
[1]; Liver, oral 5 mg/kg, 4 h, rats ref 25
  K p of radioactivity: 22.0
[1]; Lung, oral 5 mg/kg, 4 h, rats ref 25
  K p of radioactivity: 9.09
[1]; Pancreas, oral 5 mg/kg, 4 h, rats ref 25
  K p of radioactivity: 5.69
[5]
  pKa: 7.7
[2]; intravenous administration to rats ref 25
  V ss: 8.8 25 l/kg

## Cc1cc2ncc(C(=O)NCC(C)(C)NCC(=O)N3CCC[C@H]3C#N)cn2n1.Cl [Anagliptin, N‐[2‐({2‐[(2S)‐2‐cyanopyrrolidin‐1‐yl]‐2‐oxoethyl}amino)‐2‐methylpropyl]‐2‐methylpyrazolo[1,5‐a]pyrimidine‐6‐carboxamide hydrochloride]
[1]; Heart, oral 10 mg/kg, 6 h, rats ref 21
  K p of radioactivity: 0.74
[1]; Kidney, oral 10 mg/kg, 6 h, rats ref 21, 10 mg/kg
  K p of radioactivity: 6.71
[1]; Liver, oral 10 mg/kg, 6 h, rats ref 21
  K p of radioactivity: 4.36
[1]; Lung, oral 10 mg/kg, 6 h, rats ref 21
  K p of radioactivity: 1.50
[1]; Pancreas, oral 10 mg/kg, 6 h, rats ref 21
  K p of radioactivity: 0.81
[5]
  pKa: 6.7
[2]; intravenous administration to rats ref 2
  V ss: 0.68 L/kg
DPP‐4
  IC50: 3.8 nM

## Cn1c(=O)cc(N2CCC[C@@H](N)C2)n(Cc2ccccc2C#N)c1=O [Alogliptin]
[1]; Heart, oral 3 mg/kg, 4 h, rats ref 22
  K p of radioactivity: 2.36
[1]; Kidney, oral 3 mg/kg, 4 h, rats ref 22
  K p of radioactivity: 29.7
[1]; Liver, oral 3 mg/kg, 4 h, rats ref 22
  K p of radioactivity: 17.3
[1]; Lung, oral 3 mg/kg, 4 h, rats ref 22
  K p of radioactivity: 8.6
[1]; Pancreas, oral 3 mg/kg, 4 h, rats ref 22
  K p of radioactivity: 4.94
[5]
  pKa: 8.5
[2]; intravenous administration to rats ref 19
  V ss: 3.5 19 l/kg

## Cc1cc(N2CCN(C3CNC(C(=O)N4CC[S+]([O-])C4)C3)CC2)n(-c2ccccc2)n1 (stereo not shown) [M1]
[6]; plasma, 0.5 h
  metabolite detection in plasma: detected at low levels

## N#C[C@@H]1CCCN1C(=O)CNC12CC3CC(CC(O)(C3)C1)C2 [Vildagliptin, 1‐[[(3‐Hydroxy‐1‐adamantyl)amino]acetyl]‐2‐cyano‐(S)‐pyrrolidine]
[1]; Heart, oral 100 mg/kg, 4 h, rats ref 26
  K p of radioactivity: 1.48
[1]; Kidney, oral 100 mg/kg, 4 h, rats ref 26
  K p of radioactivity: 13.4
[1]; Liver, oral 100 mg/kg, 4 h, rats ref 26
  K p of radioactivity: 13.6
[1]; Lung, oral 100 mg/kg, 4 h, rats ref 26
  K p of radioactivity: 2.60
[1]; Pancreas, oral 100 mg/kg, 4 h, rats ref 26
  K p of radioactivity: 3.29
[5]
  pKa: 7.6

## O=C(C1CC(N2CCN(c3cc(CO)nn3-c3ccccc3)CC2)CN1)N1CCSC1 (stereo not shown) [M4]
[6]; kidney, 0.5, 24 and 72 h
  metabolite detection in kidney: detected in trace concentrations

## N#C[C@@H]1C[C@@H]2C[C@@H]2N1C(=O)[C@@H](N)C12CC3CC(CC(O)(C3)C1)C2 [Saxagliptin]
[5]
  pKa: 7.3
[2]; intravenous administration to rats ref 20
  V ss: 5.2 20 l/kg
